Measurements published in patent publication US20070128217A1 (priority 2003, published 2007).

Experiments:
[1] = tested on: antibodies in sera from SARS patients (sera 1a, 1b, 2, 6, 37, 62, London, SARS-yellow, SARS-green); type: binding, human; set-up: Binding of serum 6 to linear peptides of protein X1 of SARS-CoV Urbani / Binding of serum 37 to linear peptides of protein X1 of SARS-CoV Urbani / Binding of serum 6 to looped/cyclic peptide (PEPSCAN-ELISA) / Binding of serum 37 to looped/cyclic peptide (PEPSCAN-ELISA) / Binding of serum 37 to looped/cyclic peptides of protein X1 of SARS-CoV Urbani / Binding of serum 6 to linear peptides of protein X2 / Binding of serum 37 to linear peptides of protein X2 / Binding of serum 37 to looped/cyclic peptides of protein X2 of SARS-CoV Urbani / Binding of serum 6 to linear peptides of protein M of SARS-CoV Urbani / Binding of serum 37 to linear peptides of protein M of SARS-CoV Urbani / Binding of serum 6 to looped/cyclic peptides of protein M of SARS-CoV Urbani / Binding of serum 37 to looped/cyclic peptides of protein M of SARS-CoV Urbani / Binding of serum 6 to linear peptides of protein X3 of SARS-CoV Urbani / Binding of serum 37 to linear peptides of protein X3 of SARS-CoV Urbani / Binding of serum 37 to looped/cyclic peptides of protein X3 of SARS-CoV Urbani / Binding of serum 6 to linear peptides of protein X4 of SARS-CoV Urbani / Binding of serum 37 to linear peptides of protein X4 of SARS-CoV Urbani / Binding of serum 37 to looped/cyclic peptides of protein X4 of SARS-CoV Urbani / Binding of serum 6 to linear peptides of protein X5 of SARS-CoV Urbani / Binding of serum 37 to linear peptides of protein X5 of SARS-CoV Urbani / Binding of serum 37 to looped/cyclic peptides of protein X5 of SARS-CoV Urbani / Binding of serum 6 to linear peptides of protein N of SARS-CoV Urbani / Binding of serum 37 to linear peptides of protein N of SARS-CoV Urbani / Binding of serum 6 to linear peptide (PEPSCAN-ELISA) / Binding of serum 1a to looped/cyclic peptides of protein N of SARS-CoV Urbani / Binding of serum 1b to looped/cyclic peptides of protein N of SARS-CoV Urbani / Binding of serum 2 to looped/cyclic peptides of protein N of SARS-CoV Urbani / Binding of serum 6 to looped/cyclic peptides of protein N of SARS-CoV Urbani / Binding of serum 37 to looped/cyclic peptides of protein N of SARS-CoV Urbani / Binding of serum 62 to looped/cyclic peptides of protein N of SARS-CoV Urbani / Binding of serum London to looped/cyclic peptides of protein N of SARS-CoV Urbani / Binding of serum SARS-green to looped/cyclic peptides of protein N of SARS-CoV Urbani: unit not given here
[2] = tested on: control sera (pooled serum of ten healthy LUMC hospital workers; commercial negative donor pooled serum from the Dutch bloodbank); type: binding, human; set-up: Binding of Control serum LUMC to linear peptides / Binding of Control serum Blood-bank to linear peptides / Binding of Control serum LUMC to looped peptides / Binding of Control Serum Blood-Bank to Looped peptides / Binding of Control serum LUMC to linear peptides of the protein M of SARS-CoV Urbani / Binding of Control serum Blood-bank to linear peptides of the protein M of SARS-CoV Urbani / Binding of Control serum LUMC to looped peptides of the protein M of SARS-CoV Urbani / Binding of Control Serum Blood-Bank to Looped peptides of the protein M of SARS-CoV Urbani: unit not given here
[3] = tested on: rabbit serum obtained by immunizing a rabbit with the SARS-CoV strain Frankfurt 1; type: binding; set-up: Binding of a rabbit serum to linear peptides / Binding of a rabbit serum to looped peptides / Rabbit serum linear peptides / Rabbit serum looped peptides / Binding of a rabbit serum to linear peptides of protein N of SARS-CoV Urbani (Rabbit serum linear peptides) / Binding of a rabbit serum to looped/cyclic peptides of protein N of SARS-CoV Urbani (Rabbit serum looped peptides): unit not given here
[4] = tested on: recombinant human anti-SARS-CoV antibody 03-018; type: binding; set-up: Binding of antibody 03-018 to linear peptides of the N protein of SARS-CoV Urbani / Binding of antibody 03-018 to looped/cyclic peptides of the N protein of SARS-CoV Urbani: unit not given here

| Sequence | Binding of serum 1a to linear peptide (PEPSCAN-ELISA) [1] | Binding of serum 1a to looped/cyclic peptides of protein N of SARS-CoV Urbani [1] | Binding of serum 1b to linear peptide (PEPSCAN-ELISA) [1] | Binding of serum 1b to looped/cyclic peptides of protein N of SARS-CoV Urbani [1] | Binding of serum 2 to linear peptide (PEPSCAN-ELISA) [1] | Binding of serum 2 to looped/cyclic peptides of protein N of SARS-CoV Urbani [1] | Binding of serum 6 to looped/cyclic peptides of protein N of SARS-CoV Urbani [1] | Binding of serum 37 to looped/cyclic peptides of protein N of SARS-CoV Urbani [1] | Binding of serum 62 to looped/cyclic peptides of protein N of SARS-CoV Urbani [1] | Binding of serum London to looped/cyclic peptides of protein N of SARS-CoV Urbani [1] | Binding of serum SARS-green to looped/cyclic peptides of protein N of SARS-CoV Urbani [1] | Binding of serum SARS-yellow to looped/cyclic peptides of protein N of SARS-CoV Urbani [1] | Binding of Control Serum Blood-Bank to Looped peptides [2] | Binding of Control serum Blood-bank to linear peptides [2] | Binding of Control serum LUMC to linear peptides [2] | Binding of Control serum LUMC to looped peptides [2] | Binding of a rabbit serum to linear peptides of protein N of SARS-CoV Urbani (Rabbit serum linear peptides) [3] | Binding of a rabbit serum to looped/cyclic peptides of protein N of SARS-CoV Urbani (Rabbit serum looped peptides) [3] | Binding of antibody 03-018 to linear peptides of the N protein of SARS-CoV Urbani [4] | Binding of antibody 03-018 to looped/cyclic peptides of the N protein of SARS-CoV Urbani [4] | also measured |
| --- | --- | --- | --- | --- | --- | --- | --- | --- | --- | --- | --- | --- | --- | --- | --- | --- | --- | --- | --- | --- | --- |
| LESKVSGKGQQQQGQ | 0.3 | 0.4 | 0.1 | 0.3 | 0.2 | 0.7 | 0.5 | 0.7 | 0.6 | 1.8 | 0.4 | 0.7 | 0.8 | 0.8 | 0.7 | 0.7 | 0.1 | 0.6 | 0.1 | 0.3 | Binding of serum 6 to linear peptide (PEPSCAN-ELISA) [1]: 0.1; Binding of serum 37 to linear peptide (PEPSCAN-ELISA) [1]: 0.6; Binding of serum 62 to linear peptide (PEPSCAN-ELISA) [1]: 0.6; Binding of serum London to linear peptide (PEPSCAN-ELISA) [1]: 0.5; Binding of serum SARS-green to linear peptide (PEPSCAN-ELISA) [1]: 0.4; Binding of serum SARS-yellow to linear peptide (PEPSCAN-ELISA) [1]: 0.7 |
| KKPRQKRTATKQYNV | 0.2 | 0.3 | 0.1 | 0.1 | 0.3 | 0.4 | 0.3 | 0.6 | 0.5 | 0.5 | 0.1 | 0.4 | 0.4 | 0.6 | 0.7 | 0.5 | 0.3 | 0.0 | 0.1 | 0.2 | Binding of serum 6 to linear peptide (PEPSCAN-ELISA) [1]: 0.2; Binding of serum 37 to linear peptide (PEPSCAN-ELISA) [1]: 0.8; Binding of serum 62 to linear peptide (PEPSCAN-ELISA) [1]: 0.8; Binding of serum London to linear peptide (PEPSCAN-ELISA) [1]: 0.7; Binding of serum SARS-green to linear peptide (PEPSCAN-ELISA) [1]: 0.1; Binding of serum SARS-yellow to linear peptide (PEPSCAN-ELISA) [1]: 0.6 |
| ASWFTALTQHGKEEL | – | 0.2 | – | 0.1 | – | 0.2 | 0.1 | 0.4 | 0.3 | 0.3 | 0.2 | 0.1 | 0.5 | 0.7 | 0.5 | 0.4 | 0.1 | 0.1 | 0.1 | 0.2 | Binding of serum 1a to linear peptides of protein N of SARS-CoV Urbani [1]: 0.2; Binding of serum 1b to linear peptides of protein N of SARS-CoV Urbani [1]: 0.1; Binding of serum 2 to linear peptides of protein N of SARS-CoV Urbani [1]: 0.1; Binding of serum 6 to linear peptides of protein N of SARS-CoV Urbani [1]: 0.1; Binding of serum 37 to linear peptides of protein N of SARS-CoV Urbani [1]: 0.9; Binding of serum 62 to linear peptides of protein N of SARS-CoV Urbani [1]: 0.6; Binding of serum London to linear peptides of protein N of SARS-CoV Urbani [1]: 0.5; Binding of serum SARS-green to linear peptides of protein N of SARS-CoV Urbani [1]: 0.4; Binding of serum SARS-yellow to linear peptides of protein N of SARS-CoV Urbani [1]: 0.4 |
| GKMKELSPRWYFYYL | – | 0.3 | – | 0.2 | – | 0.5 | 0.4 | 0.8 | 0.8 | 0.7 | 0.4 | 0.6 | 0.8 | 0.6 | 0.6 | 0.7 | 0.1 | 0.7 | 0.1 | 0.3 | Binding of serum 1a to linear peptides of protein N of SARS-CoV Urbani [1]: 0.2; Binding of serum 1b to linear peptides of protein N of SARS-CoV Urbani [1]: 0.1; Binding of serum 2 to linear peptides of protein N of SARS-CoV Urbani [1]: 0.1; Binding of serum 6 to linear peptides of protein N of SARS-CoV Urbani [1]: 0.1; Binding of serum 37 to linear peptides of protein N of SARS-CoV Urbani [1]: 0.5; Binding of serum 62 to linear peptides of protein N of SARS-CoV Urbani [1]: 0.5; Binding of serum London to linear peptides of protein N of SARS-CoV Urbani [1]: 0.4; Binding of serum SARS-green to linear peptides of protein N of SARS-CoV Urbani [1]: 0.2; Binding of serum SARS-yellow to linear peptides of protein N of SARS-CoV Urbani [1]: 0.6 |
